Reference: ChEMBL document CHEMBL1201862, “PubChem BioAssay data set” (2004)
The source made the active and inactive calls.

Tests used:
[1] = target: Sphingosine 1-phosphate receptor 1 (Homo sapiens, UniProt P21453); format: functional;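 note: Tango beta-arrestin reporter U2OS cells stimulated with S1P near its EC80; inhibitor potency meaning antagonism of receptor activation by the natural agonist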
[2] = cytotoxicity in HEK-293T cells, dose response, cytotoxicity control for TCR NF-kB inhibitor project, luminescence, T-cell screen hits (AID 489026); format: functional, cell-based;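 note: cells exposed to compound about 14 hours before the viability readout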
HeLa = experiment: Cytotoxicity counterscreen assay for transcriptional activators of heat shock protein 70 (Hsp70). [Related pubchem assays: 1203, 1252 ]; format: functional; conditions: Homo sapiens
Protein skinhead-1 = target: T1, Protein skinhead-1 (Caenorhabditis elegans, UniProt P34707); format: functional
T1 sequence (P34707 whole entry): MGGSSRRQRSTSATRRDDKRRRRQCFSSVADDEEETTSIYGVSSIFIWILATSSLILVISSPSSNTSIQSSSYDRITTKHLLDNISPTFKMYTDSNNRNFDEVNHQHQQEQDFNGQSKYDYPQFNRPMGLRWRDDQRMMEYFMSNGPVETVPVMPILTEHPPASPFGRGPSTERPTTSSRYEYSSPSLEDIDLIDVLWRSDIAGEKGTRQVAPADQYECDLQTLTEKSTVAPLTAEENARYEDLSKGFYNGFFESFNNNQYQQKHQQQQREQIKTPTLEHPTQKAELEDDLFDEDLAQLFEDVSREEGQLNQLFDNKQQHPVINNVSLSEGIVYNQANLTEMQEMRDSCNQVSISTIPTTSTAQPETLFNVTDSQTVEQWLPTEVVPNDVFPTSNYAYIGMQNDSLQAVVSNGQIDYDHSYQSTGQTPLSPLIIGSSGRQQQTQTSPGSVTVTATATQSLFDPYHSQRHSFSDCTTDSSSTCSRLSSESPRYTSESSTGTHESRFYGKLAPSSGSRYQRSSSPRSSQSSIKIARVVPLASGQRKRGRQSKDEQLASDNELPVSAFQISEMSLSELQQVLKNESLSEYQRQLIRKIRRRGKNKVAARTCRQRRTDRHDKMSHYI

[3] = target: T2, Histone-lysine N-methyltransferase NSD2 (Homo sapiens, UniProt O96028); format: biochemical
T2 sequence (O96028 whole entry): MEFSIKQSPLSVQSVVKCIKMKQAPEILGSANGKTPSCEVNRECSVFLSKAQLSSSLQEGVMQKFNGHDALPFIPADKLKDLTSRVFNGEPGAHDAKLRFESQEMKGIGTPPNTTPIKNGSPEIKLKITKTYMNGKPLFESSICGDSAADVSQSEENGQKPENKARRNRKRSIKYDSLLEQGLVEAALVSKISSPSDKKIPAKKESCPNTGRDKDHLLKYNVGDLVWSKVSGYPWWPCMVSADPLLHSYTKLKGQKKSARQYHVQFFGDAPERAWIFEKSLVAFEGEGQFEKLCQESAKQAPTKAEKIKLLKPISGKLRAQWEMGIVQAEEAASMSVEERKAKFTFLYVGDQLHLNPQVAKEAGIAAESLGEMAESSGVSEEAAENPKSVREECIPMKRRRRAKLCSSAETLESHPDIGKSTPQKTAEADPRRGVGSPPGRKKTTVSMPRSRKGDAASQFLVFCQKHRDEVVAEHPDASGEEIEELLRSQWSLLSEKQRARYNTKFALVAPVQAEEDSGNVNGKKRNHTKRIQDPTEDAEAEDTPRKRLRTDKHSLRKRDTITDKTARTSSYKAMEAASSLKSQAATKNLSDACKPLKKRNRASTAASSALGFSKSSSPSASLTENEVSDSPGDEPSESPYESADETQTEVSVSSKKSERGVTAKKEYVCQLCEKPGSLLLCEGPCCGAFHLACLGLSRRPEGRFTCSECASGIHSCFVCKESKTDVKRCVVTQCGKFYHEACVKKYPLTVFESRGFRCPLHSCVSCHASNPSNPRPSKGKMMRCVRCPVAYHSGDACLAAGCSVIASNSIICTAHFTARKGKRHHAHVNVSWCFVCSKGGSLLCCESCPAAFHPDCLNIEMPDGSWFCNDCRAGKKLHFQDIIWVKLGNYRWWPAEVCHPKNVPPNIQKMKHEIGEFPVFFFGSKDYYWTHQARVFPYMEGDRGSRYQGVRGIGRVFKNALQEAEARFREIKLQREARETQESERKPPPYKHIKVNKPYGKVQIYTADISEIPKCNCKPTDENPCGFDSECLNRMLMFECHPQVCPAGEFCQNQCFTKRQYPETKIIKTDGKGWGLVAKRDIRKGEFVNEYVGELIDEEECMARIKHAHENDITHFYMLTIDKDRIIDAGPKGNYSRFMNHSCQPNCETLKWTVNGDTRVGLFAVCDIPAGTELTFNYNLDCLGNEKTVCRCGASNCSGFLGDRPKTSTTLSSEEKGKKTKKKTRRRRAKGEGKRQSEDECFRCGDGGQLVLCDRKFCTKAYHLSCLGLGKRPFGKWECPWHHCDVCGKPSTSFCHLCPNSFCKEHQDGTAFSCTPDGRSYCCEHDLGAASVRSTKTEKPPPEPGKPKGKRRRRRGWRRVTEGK

[4] = target: Serine/threonine-protein phosphatase PP1-alpha catalytic subunit (Homo sapiens, UniProt P62136); experiment: PP1 phosphatase inhibitors, dose response, biochemical, fluorescence (AID 2394)
[5] = target: C-C chemokine receptor type 6 (Homo sapiens, UniProt P51684); experiment: CCR6 receptor antagonists, dose response, cell-based, luminescent beta-arrestin readout (AID 504728); format: functional
Streptokinase A = target: T3, Streptokinase A (Streptococcus pyogenes serotype M1, UniProt P10520); experiment: S. pyogenes streptokinase expression inhibitors, potency, dose response, plasminogen activation absorbance, OD405 (AID 1914); format: functional, Streptococcus pyogenes M1 GAS;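 note: secreted streptokinase activity via plasminogen activation per viability signal from cell pellet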
T3 sequence (P10520 whole entry): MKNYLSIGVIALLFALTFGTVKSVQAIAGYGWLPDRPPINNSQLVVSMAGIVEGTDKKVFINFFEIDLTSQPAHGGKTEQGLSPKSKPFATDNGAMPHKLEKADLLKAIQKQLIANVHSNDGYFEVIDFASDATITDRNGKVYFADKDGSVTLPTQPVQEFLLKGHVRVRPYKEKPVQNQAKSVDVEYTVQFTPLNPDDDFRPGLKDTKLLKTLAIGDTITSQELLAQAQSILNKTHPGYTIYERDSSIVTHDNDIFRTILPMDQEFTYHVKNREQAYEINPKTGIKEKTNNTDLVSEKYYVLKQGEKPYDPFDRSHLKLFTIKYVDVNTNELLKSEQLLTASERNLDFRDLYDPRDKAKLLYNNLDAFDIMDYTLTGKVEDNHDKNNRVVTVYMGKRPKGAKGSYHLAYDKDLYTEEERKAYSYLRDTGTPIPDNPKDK
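Throughout, for CC50: cells exposed to compound for 16 hours before readout.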

C-C chemokine receptor type 6, sequence (P51684 whole entry): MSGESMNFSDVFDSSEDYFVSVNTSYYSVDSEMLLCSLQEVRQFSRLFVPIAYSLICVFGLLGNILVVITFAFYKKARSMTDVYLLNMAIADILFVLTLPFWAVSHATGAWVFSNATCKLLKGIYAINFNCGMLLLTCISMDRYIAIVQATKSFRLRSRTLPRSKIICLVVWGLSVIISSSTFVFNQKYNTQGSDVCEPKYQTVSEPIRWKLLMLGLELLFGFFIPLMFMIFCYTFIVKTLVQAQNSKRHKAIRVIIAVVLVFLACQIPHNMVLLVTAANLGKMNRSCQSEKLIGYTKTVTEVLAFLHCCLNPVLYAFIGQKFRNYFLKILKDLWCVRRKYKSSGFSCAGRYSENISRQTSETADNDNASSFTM
Serine/threonine-protein phosphatase PP1-alpha catalytic subunit, sequence (P62136 whole entry): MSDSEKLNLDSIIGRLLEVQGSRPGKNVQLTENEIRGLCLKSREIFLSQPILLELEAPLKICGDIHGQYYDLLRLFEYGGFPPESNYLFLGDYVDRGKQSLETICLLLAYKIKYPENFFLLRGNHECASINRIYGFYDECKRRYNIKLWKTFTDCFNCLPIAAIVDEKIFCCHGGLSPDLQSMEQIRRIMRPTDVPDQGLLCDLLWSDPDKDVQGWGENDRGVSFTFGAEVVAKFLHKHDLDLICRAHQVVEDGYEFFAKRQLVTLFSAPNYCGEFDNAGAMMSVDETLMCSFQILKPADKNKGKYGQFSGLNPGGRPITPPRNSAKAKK
Sphingosine 1-phosphate receptor 1, sequence (P21453 whole entry): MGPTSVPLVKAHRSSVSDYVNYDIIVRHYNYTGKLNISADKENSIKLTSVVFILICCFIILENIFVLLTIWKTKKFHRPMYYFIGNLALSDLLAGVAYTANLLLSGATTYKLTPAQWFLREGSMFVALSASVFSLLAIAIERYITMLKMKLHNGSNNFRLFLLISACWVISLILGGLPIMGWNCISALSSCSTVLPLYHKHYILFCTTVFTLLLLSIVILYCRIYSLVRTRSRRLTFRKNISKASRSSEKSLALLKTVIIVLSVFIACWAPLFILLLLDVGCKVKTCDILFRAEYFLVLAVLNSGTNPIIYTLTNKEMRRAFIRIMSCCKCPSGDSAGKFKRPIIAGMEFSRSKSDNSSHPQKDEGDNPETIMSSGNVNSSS

## COC(=O)C[C@]1(C(=O)OC)CN(C#N)N(c2ccc(Cl)cc2)C12c1ccccc1-c1ccccc12
[1]
  IC50: 5.39 µM (active)
[2]
  IC50: > 80 µM (inactive)
HeLa
  CC50: 3.55 µM (active)

## O=C(Nc1ccc(C#Cc2ccccc2)cc1)C1CC1
Protein skinhead-1
  IC50: > 100 µM (inactive)

## CCCCn1c(NC(=O)c2ccco2)c(C(=O)OCC)c2nc3ccccc3nc21
[3]
  AC50: 2.94 µM (active)
[4]
  IC50: 62.5 µM (not active)

## Cc1ccccc1NC1=C/C(=N\S(=O)(=O)c2ccc(C(=O)O)cc2)c2ccccc2C1=O
[3]
  AC50: 0.117 µM (active)

## Cc1ccc(NC2=C/C(=N/S(=O)(=O)c3cccs3)c3ccccc3C2=O)cc1
[5]
  IC50: > 66.6 µM (inactive)

## COc1ccc(-c2cc(-c3ccc(C)cc3)[nH]n2)c(O)c1
Protein skinhead-1
  IC50: > 100 µM (inactive)
Streptokinase A
  EC50: > 150 µM (not active)
